Measured values reported in ChEMBL document CHEMBL5390204, “Persephacin Is a Broad-Spectrum Antifungal Aureobasidin Metabolite That Overcomes Intrinsic Resistance in Aspergillus fumigatus” (J Nat Prod, 2023).
Converted amounts (≈) assume the structure as drawn.

Key:
[1] = test system: Saccharomyces cerevisiae; assay: Antifungal activity against multidrug-resistant Saccharomyces cerevisiae 399 assessed as inhibition in fungal growth incubated for 48 hrs by microplate reader analysis; assay type: functional
[2] = test system: Clavispora lusitaniae; assay: Antifungal activity against multidrug-resistant Candida lusitaniae 398 assessed as inhibition in fungal growth incubated for 48 hrs by microplate reader analysis; assay type: functional
[3] = test system: Candida duobushaemulonii; assay: Antifungal activity against multidrug-resistant Candida duobushaemulonii 394 assessed as inhibition in fungal growth incubated for 48 hrs by microplate reader analysis; assay type: functional; conditions: Candidozyma duobushaemuli
[4] = test system: Candida duobushaemulonii; assay: Antifungal activity against multidrug-resistant Candida duobushaemulonii 392 assessed as inhibition in fungal growth incubated for 48 hrs by microplate reader analysis; assay type: functional; conditions: Candidozyma duobushaemuli
[5] = test system: [Candida] auris; assay: Antifungal activity against multidrug-resistant Candida auris 390 assessed as inhibition in fungal growth incubated for 48 hrs by microplate reader analysis; assay type: functional; conditions: Candidozyma auris
[6] = test system: [Candida] auris; assay: Antifungal activity against multidrug-resistant Candida auris 388 assessed as inhibition in fungal growth incubated for 48 hrs by microplate reader analysis; assay type: functional; conditions: Candidozyma auris
[7] = test system: [Candida] auris; assay: Antifungal activity against multidrug-resistant Candida auris 387 assessed as inhibition in fungal growth incubated for 48 hrs by microplate reader analysis; assay type: functional; conditions: Candidozyma auris
[8] = test system: [Candida] auris; assay: Antifungal activity against multidrug-resistant Candida auris 384 assessed as inhibition in fungal growth incubated for 48 hrs by microplate reader analysis; assay type: functional; conditions: Candidozyma auris
[9] = test system: [Candida] auris; assay: Antifungal activity against multidrug-resistant Candida auris 382 assessed as inhibition in fungal growth incubated for 48 hrs by microplate reader analysis; assay type: functional; conditions: Candidozyma auris
[10] = test system: Kluyveromyces marxianus; assay: Antifungal activity against Candida kefyr 12 assessed as inhibition in fungal growth incubated for 48 hrs by microplate reader analysis; assay type: functional
[11] = test system: Candida albicans; assay: Antifungal activity against Candida albicans 1 assessed as inhibition in fungal growth incubated for 48 hrs by microplate reader analysis; assay type: functional
[12] = test system: Candida albicans; assay: Antifungal activity against Candida albicans 10 assessed as inhibition in fungal growth incubated for 48 hrs by microplate reader analysis; assay type: functional
[13] = test system: Candida albicans; assay: Antifungal activity against Candida albicans 21 assessed as inhibition in fungal growth incubated for 48 hrs by microplate reader analysis; assay type: functional
[14] = test system: Candida albicans; assay: Antifungal activity against Candida albicans 24 assessed as inhibition in fungal growth incubated for 48 hrs by microplate reader analysis; assay type: functional
[15] = test system: Candida albicans; assay: Antifungal activity against Candida albicans 30 assessed as inhibition in fungal growth incubated for 48 hrs by microplate reader analysis; assay type: functional
[16] = test system: Candida parapsilosis; assay: Antifungal activity against Candida parapsilosis 7 assessed as inhibition in fungal growth incubated for 48 hrs by microplate reader analysis; assay type: functional; conditions: Lodderomyces parapsilosis
[17] = test system: Candida parapsilosis; assay: Antifungal activity against Candida parapsilosis 9 assessed as inhibition in fungal growth incubated for 48 hrs by microplate reader analysis; assay type: functional; conditions: Lodderomyces parapsilosis
[18] = test system: Candida parapsilosis; assay: Antifungal activity against Candida parapsilosis 15 assessed as inhibition in fungal growth incubated for 48 hrs by microplate reader analysis; assay type: functional; conditions: Lodderomyces parapsilosis
[19] = test system: Candida parapsilosis; assay: Antifungal activity against Candida parapsilosis 18 assessed as inhibition in fungal growth incubated for 48 hrs by microplate reader analysis; assay type: functional; conditions: Lodderomyces parapsilosis
[20] = test system: Candida parapsilosis; assay: Antifungal activity against Candida parapsilosis 23 assessed as inhibition in fungal growth incubated for 48 hrs by microplate reader analysis; assay type: functional; conditions: Lodderomyces parapsilosis
[21] = test system: Aspergillus fumigatus; assay: Antifungal activity against Aspergillus fumigatus MYA 3627 assessed as reduction in fungal growth incubated for 48 hrs by microplate reader analysis; assay type: functional
[22] = test system: Aspergillus fumigatus; assay: Antifungal activity against Aspergillus fumigatus NRRL6113 assessed as reduction in fungal growth incubated for 48 hrs by microplate reader analysis; assay type: functional
[23] = test system: Aspergillus niger; assay: Antifungal activity against Aspergillus niger FGSC A732 assessed as reduction in fungal growth incubated for 48 hrs by microplate reader analysis; assay type: functional
[24] = test system: Rhizopus arrhizus; assay: Antifungal activity against Rhizopus oryzae FGSC 9543 assessed as reduction in fungal growth incubated for 48 hrs by microplate reader analysis; assay type: functional
[25] = test system: Mucor circinelloides; assay: Antifungal activity against Mucor circinelloides 235C7 assessed as reduction in fungal growth incubated for 48 hrs by microplate reader analysis; assay type: functional
[26] = test system: Fusarium solani; assay: Antifungal activity against Fusarium solani 243G2 assessed as reduction in fungal growth incubated for 48 hrs by microplate reader analysis; assay type: functional
[27] = test system: Hamigera insecticola; assay: Antifungal activity against Hamigera insecticola NRRL35442 assessed as reduction in fungal growth incubated for 48 hrs by microplate reader analysis; assay type: functional
[28] = test system: Candida albicans; assay: Antifungal activity against Candida albicans SC5314 assessed as inhibition in fungal growth incubated for 48 hrs in presence of 0% serum by microplate reader analysis; assay type: functional
[29] = test system: Candida albicans; assay: Antifungal activity against Candida albicans SC5314 assessed as inhibition in fungal growth incubated for 48 hrs in presence of 10% serum by microplate reader analysis; assay type: functional
[30] = test system: [Candida] auris; assay: Antifungal activity against multidrug-resistant Candida auris 381 assessed as inhibition in fungal growth incubated for 48 hrs in presence of 5% serum by microplate reader analysis; assay type: functional; conditions: Candidozyma auris
[31] = test system: [Candida] auris; assay: Antifungal activity against multidrug-resistant Candida auris 381 assessed as inhibition in fungal growth incubated for 48 hrs in presence of 10% serum by microplate reader analysis; assay type: functional; conditions: Candidozyma auris
[32] = test system: Cryptococcus neoformans; assay: Antifungal activity against Cryptococcus neoformans H99 assessed as inhibition in fungal growth incubated for 48 hrs in presence of 0% serum by microplate reader analysis; assay type: functional
[33] = test system: Cryptococcus neoformans; assay: Antifungal activity against Cryptococcus neoformans H99 assessed as inhibition in fungal growth incubated for 48 hrs in presence of 5% serum by microplate reader analysis; assay type: functional
[34] = test system: Aspergillus fumigatus; assay: Antifungal activity against Aspergillus fumigatus ATCC MYA-3627 assessed as inhibition in fungal growth incubated for 48 hrs in presence of 0% serum by microplate reader analysis; assay type: functional
[35] = test system: Candida parapsilosis; assay: Antifungal activity against Candida parapsilosis ATCC 22019 (Y-12969) assessed as reduction in fungal viability incubated for 48 hrs by microplate reader analysis; assay type: functional
[36] = test system: Candida tropicalis; assay: Antifungal activity against Candida tropicalis ATCC750 (Y-12699) assessed as reduction in fungal viability incubated for 48 hrs by microplate reader analysis; assay type: functional
[37] = test system: Cryptococcus neoformans; assay: Antifungal activity against Cryptococcus neoformans H99 assessed as reduction in fungal viability incubated for 48 hrs by microplate reader analysis; assay type: functional
[38] = test system: Aspergillus fumigatus; assay: Antifungal activity against Aspergillus fumigatus NRRL6113 assessed as reduction in fungal viability incubated for 48 hrs by microplate reader analysis; assay type: functional
[39] = test system: Aspergillus flavus; assay: Antifungal activity against Aspergillus flavus NRRL485 assessed as reduction in fungal viability incubated for 48 hrs by microplate reader analysis; assay type: functional
[40] = test system: Aspergillus terreus; assay: Antifungal activity against Aspergillus terreus 191A6 assessed as reduction in fungal viability incubated for 48 hrs by microplate reader analysis; assay type: functional
[41] = test system: Curvularia lunata; assay: Antifungal activity against Curvularia lunata NRRL6409 assessed as reduction in fungal viability incubated for 48 hrs by microplate reader analysis; assay type: functional
[42] = test system: Mucor circinelloides; assay: Antifungal activity against Mucor circinelloides 235C7 assessed as reduction in fungal viability incubated for 48 hrs by microplate reader analysis; assay type: functional
[43] = test system: Paecilomyces lilacinus; assay: Antifungal activity against Paecilomyces lilacinus 165E10 assessed as reduction in fungal viability incubated for 48 hrs by microplate reader analysis; assay type: functional, Purpureocillium lilacinum
[44] = test system: Hamigera insecticola; assay: Antifungal activity against Hamigera insecticola NRRL35442 assessed as reduction in fungal viability incubated for 48 hrs by microplate reader analysis; assay type: functional

## CC[C@H](C)C[C@H](C)C[C@H](C)C[C@@H]1NC(=O)[C@H](C(C)C)N(C)C(=O)[C@@H]([C@H](C)CC)OC(=O)[C@H](C(C)(C)O)N(C)C(=O)[C@H](CC(C)C)NC(=O)[C@H](C(C)C)N(C)C(=O)[C@H]([C@H](C)CC)NC(=O)[C@@H]2CCCN2C(=O)CN(C)C1=O
[1]
  MIC80: 2.5 µM (≈ 2.69 µg/mL)
[2]
  MIC80: 2.5 µM (≈ 2.69 µg/mL)
[3]
  MIC80: 2.5 µM (≈ 2.69 µg/mL)
[4]
  MIC80: 2.5 µM (≈ 2.69 µg/mL)
[5]
  MIC80: 2.5 µM (≈ 2.69 µg/mL)
[6]
  MIC80: 2.5 µM (≈ 2.69 µg/mL)
[7]
  MIC80: 2.5 µM (≈ 2.69 µg/mL)
[8]
  MIC80: 2.5 µM (≈ 2.69 µg/mL)
[9]
  MIC80: 2.5 µM (≈ 2.69 µg/mL)
[10]
  MIC80: 1.3 µM (≈ 1.4 µg/mL)
[11]
  MIC80: 2.5 µM (≈ 2.69 µg/mL)
[12]
  MIC80: 2.5 µM (≈ 2.69 µg/mL)
[13]
  MIC80: 1.3 µM (≈ 1.4 µg/mL)
[14]
  MIC80: 0.6 µM (≈ 0.645 µg/mL)
[15]
  MIC80: 5 µM (≈ 5.38 µg/mL)
[16]
  MIC80: 2.5 µM (≈ 2.69 µg/mL)
[17]
  MIC80: 2.5 µM (≈ 2.69 µg/mL)
[18]
  MIC80: 2.5 µM (≈ 2.69 µg/mL)
[19]
  MIC80: 1.3 µM (≈ 1.4 µg/mL)
[20]
  MIC80: 2.5 µM (≈ 2.69 µg/mL)
[21]
  MFC: 5 µM (≈ 5.38 µg/mL)
  MIC80: 2.5 µM (≈ 2.69 µg/mL)
[22]
  MFC: 5 µM (≈ 5.38 µg/mL)
  MIC80: 2.5 µM (≈ 2.69 µg/mL)
[23]
  MFC: > 10 µM
  MIC80: 1.3 µM (≈ 1.4 µg/mL)
[24]
  MFC: > 10 µM
  MIC80: > 10 µM
[25]
  MFC: > 10 µM
  MIC80: > 10 µM
[26]
  MFC: 2.5 µM (≈ 2.69 µg/mL)
  MIC80: 1.3 µM (≈ 1.4 µg/mL)
[27]
  MFC: 5 µM (≈ 5.38 µg/mL)
  MIC80: 0.6 µM (≈ 0.645 µg/mL)
[28]
  MIC80: 0.6 µM
[29]
  MIC80: 0.3 µM
[30]
  MIC80: 1.3 µM
[31]
  MIC80: 1.3 µM
[32]
  MIC80: 0.6 µM
[33]
  MIC80: < 0.2 µM
[34]
  MIC80: 2.5 µM
[35]
  MFC<=99.9: 2.5 µM (≈ 2.69 µg/mL)
[36]
  MFC<=99.9: 2.5 µM (≈ 2.69 µg/mL)
[37]
  MFC<=99.9: 2.5 µM (≈ 2.69 µg/mL)
[38]
  MFC<=99.9: 5 µM (≈ 5.38 µg/mL)
[39]
  MFC<=99.9: >10 µM
[40]
  MFC<=99.9: >10 µM
[41]
  MFC<=99.9: 0.6 µM (≈ 0.645 µg/mL)
[42]
  MFC<=99.9: >10 µM
[43]
  MFC<=99.9: >10 µM
[44]
  MFC<=99.9: 5 µM (≈ 5.38 µg/mL)
